Assay results taken from the NIST ThermoML archive (doi:10.1007/s10765-018-2359-2).

Legend:
[1] = 100 kPa, Liquid; for thermal conductivity: transient hot wire
[2] = xn = mol fraction of the nth substance listed; details: 100 kPa, Liquid; for thermal conductivity: transient hot wire

CCOP(=O)([O-])OCC.CCn1cc[n+](C)c1 [1-ethyl-3-methylimidazolium diethyl phosphate]
[1]
Details | mass density [kg/m3] | thermal conductivity [W/m/K]
303.15 K | 1144.9 | –
313.15 K | 1139.2 | 0.1745
333.15 K | 1127.2 | –
353.15 K | 1115.2 | –

CCOP(=O)([O-])OCC.CCn1cc[n+](C)c1 [1-ethyl-3-methylimidazolium diethyl phosphate] + O
[2]
Details | mass density, x1 = 0.2 [kg/m3] | mass density, x1 = 0.4 [kg/m3] | mass density, x1 = 0.6 [kg/m3] | mass density, x1 = 0.8 [kg/m3] | mass density, x1 = 1 [kg/m3] | thermal conductivity, x1 = 0.2 [W/m/K] | thermal conductivity, x1 = 0.4 [W/m/K] | thermal conductivity, x1 = 0.6 [W/m/K] | thermal conductivity, x1 = 0.8 [W/m/K] | thermal conductivity, x1 = 1 [W/m/K]
303.15 K | 1133.7 | 1137.4 | 1139.3 | 1143.2 | 1144.9 | – | – | – | – | –
313.15 K | 1126 | 1131.3 | 1133.3 | 1137.2 | 1139.2 | 0.2341 | 0.1964 | 0.1849 | 0.1783 | 0.1745
333.15 K | 1112.4 | 1118.3 | 1121.1 | 1124.4 | 1127.2 | – | – | – | – | –
353.15 K | 1098.8 | 1105.7 | 1108.9 | 1118 | 1115.2 | – | – | – | – | –

O [water]
[1]
Details | thermal conductivity [W/m/K]
302.39 K | 0.6187
314.31 K | 0.6334
333.54 K | 0.656
353.53 K | 0.67
